Where “and” joins values, the source holds several entries; their conditions need not be identical. Identical values can stand only once. Counter-ions that a name gives are not always drawn.
Tests used:
[1] = Solubility of active agents in excipients (saturated solutions, UPLC/UV)
Procedure: Over a 24-hour period, the solutions were mixed periodically and returned to the water bath. After approximately 72 hours, the solutions were removed from the water bath and appearance recorded for each of the saturated solutions. […] The supernatants were prepared for analysis by UPLC. Triplicate weighed aliquots were prepared from the collected supernatants and analyzed for assay using a UPLC/UV method. The analysis was performed using a Waters BEH C18 column (2.1 mm×50 mm, 1.7 μm) under gradient, reversed phase conditions with detection at 260 nm. The saturated solutions were quantitated by linear regression analysis against a 5-point calibration curve.
Testing using the same methodology was performed for EFdA, LNG, and ENG using various excipients.

[2] = subcutaneous implant, up to 90 days
Procedure: Testing was performed to evaluate the in vivo release profile of an exemplary device.

[3] = In vitro release from PCL reservoir implants in PBS pH 7.4 at 37 °C (UV-Vis); type: physicochemical; details: for release rate of TAF: first 30 days, normalized to 314 mm^2; for release rate of TAF from implant: summary b130; for TAF dosage (daily release rate): release over 35 days, FIG. 24; for Release Rates of TAF, Gamma-Irradiated: 18-24 kGy
Procedure: The implants were incubated in 1×PBS (pH 7.4) at 37° C. Drug quantity released in media was measured via UV-Vis three times per week during which the implants were transferred to fresh buffer to maintain sink conditions. Drug concentrations were determined by correlating UV absorbance values to a standard curve. Standard curves involved measuring peak absorbance values as a function of drug concentrations diluted by half from bulk solutions. Peak absorbance values were determined by scanning the dilute drug solutions from 230 to 700 nm at a step size of 1 nm and assessing the maximum UV absorbance value.
Testing was performed to evaluate release kinetics of varying formulations of active agent and excipient. In particular, the release mechanism and release profiles for TAF formulated with varying mass quantities of castor oil from extruded PCL tubes was evaluated. Heat extruded PCL devices were fabricated (2.5 mm×40 mm) using 80 kDa Sigma grade PCL. […] For the in vitro release studies, devices were incubated in 40 mL of phosphate buffered saline (PBS) at pH 7.4 in a shaking incubator at 37° C. The implants were transferred to fresh buffer three times per week to maintain sink conditions.
Testing was performed to evaluate the in vitro release profile for an exemplary segmented device. In-vitro conditions included a simulated physiological media of a salt solution at pH between 6.5 and 7.5 at a temperature of 37° C. The exemplary device was engineered to release two APIs simultaneously, both at zero-order release kinetics. The device was fabricated with a segmented architecture that contained LNG formulated with ethyl oleate at a 1:4 ratio and EFdA formulated with castor oil at a 1:1 ratio and housed in separate compartments within a single implant design. Different segment lengths, polymer membrane thicknesses and polymer properties were tested.
In vitro release characterization involved incubation of the implants in 40 mL 1× phosphate buffered saline (PBS) (pH 7.4) at 37° C. and placed on an orbital shaker. […] The release buffer was sampled three times per week during which the devices were transferred to 40 mL of fresh buffer to maintain sink conditions. TAF quantity released in each PBS buffer during the time interval was calculated and cumulative mass of drug release as a function of time was determined.

[4] = Chromatographic purity (stability) of formulation inside implant after in-vitro exposure (UPLC/UV); type: physicochemical; details: after 180 days in simulated physiological conditions
[5] = subdermal silicone implant with PVA-coated channels, beagle dogs; cited from earlier work

With CC(C)OC(=O)[C@H](C)N[P@](=O)(CO[C@H](C)Cn1cnc2c(N)ncnc21)Oc1ccccc1 [TAF, Tenofovir Alafenamide Fumarate] as the compound, how does the solubility at 72 h ([1]; 37 °C, oil or lipid, thermodynamic from solid) read?
Its solubility at 72 h is 3900 µg/mL.

And the “solubility of TAF within four different excipients” value ([1]; sesame oil, castor oil, oleic acid, PEG 600, FIG. 8)?
The value was “most soluble in oleic acid and PEG600”.

What about the “reactivity at the site of the implant” value [2] of the same compound?
Its value is “minimal reactivity”.

What about the “release rate of TAF” value ([3]; 2:1 TAF:castor oil, 45 μm wall) of the same compound?
Its value is 0.91 ± 0.23 mg/day.

And the “release rate of TAF” value ([3]; 2:1 TAF:castor oil, 70 μm wall)?
Its value is 0.61 ± 0.09 mg/day.

And the “release rate of TAF” value ([3]; 2:1 TAF:castor oil, 100 μm wall)?
Its value is 0.29 ± 0.05 mg/day.

And the “release rate of TAF” value ([3]; 2:1 TAF:castor oil, 150 μm wall)?
The value was 0.19 ± 0.04 mg/day.

And the “release rate of TAF” value ([3]; 2:1 TAF:castor oil, 200 μm wall)?
The value was 0.15 ± 0.03 mg/day.

What about the initial release rate ([3]; 4:1 TAF-castor oil formulation) of the same compound?
The initial release rate was 0.2 mg/day.

And the initial release rate ([3]; 5:1 TAF-castor oil formulation)?
Its initial release rate is 0.4 mg/day.

And the “release rate of TAF from implant” value ([3]; 45 μm PCL wall)?
Its value is “approximately 0.8 mg/day”.

And the “TAF dosage (daily release rate)” value ([3]; 45 μm wall thickness, 2:1 TAF:castor oil)?
The value was 0.78 ± 0.03 mg/day.

And the “release rate of TAF from implant” value ([3]; 200 μm PCL wall)?
Its value is about 0.2 mg/day.

What about the “TAF dosage (daily release rate)” value ([3]; 200 μm wall thickness, 2:1 TAF:castor oil) of the same compound?
Its value is 0.13 ± 0.01 mg/day.

What about the “Release Rates of TAF, Non-Irradiated” value ([3]; PC-12, 70 μm wall) of the same compound?
Its value is 0.37 ± 0.05 mg/day.

What about the “Release Rates of TAF, Gamma-Irradiated” value ([3]; PC-12, 70 μm wall) of the same compound?
The value was 0.30 ± 0.03 mg/day.

And the “Release Rates of TAF, Non-Irradiated” value ([3]; PC-12, 100 μm wall)?
Its value is 0.20 ± 0.03 mg/day.

And the “Release Rates of TAF, Gamma-Irradiated” value ([3]; PC-12, 100 μm wall)?
The value was 0.20 ± 0.02 mg/day.

And the “Release Rates of TAF, Non-Irradiated” value ([3]; Sigma-PCL, 70 μm wall)?
Its value is 0.62 ± 0.09 mg/day.

And the “Release Rates of TAF, Gamma-Irradiated” value ([3]; Sigma-PCL, 70 μm wall)?
Its value is 0.54 ± 0.06 mg/day.

And the “Release Rates of TAF, Non-Irradiated” value ([3]; Sigma-PCL, 100 μm wall)?
Its value is 0.29 ± 0.05 mg/day.

What about the “Release Rates of TAF, Gamma-Irradiated” value ([3]; Sigma-PCL, 100 μm wall) of the same compound?
The value was 0.32 ± 0.03 mg/day.

What about the “Measured release rates for full sized device” value (shortened to “Measured release rates”) ([3]; TAF castor oil devices (1:1, 2:1, 3:1), PCL wall 70 μm, 2.5 mm x 40 mm) of the same compound?
Its value is 0.7 mg/day and 0.7 ± 0.08 mg/day.

And the “Measured release rates” value ([3]; TAF castor oil devices, PCL wall 100 μm)?
Its value is 0.38 ± 0.04 mg/day.

And the “Measured release rates” value ([3]; TAF castor oil devices, PCL wall 200 μm)?
Its value is 0.22 ± 0.01 mg/day.

And the “J, drug released from the membrane per unit area per unit time” value ([3]; TAF castor oil, 70 μm, surface area 314 mm^2)?
Its value is 0.002 mg/day/mm^2.

What about the start of depletion ([3]; TAF:castor oil 1:1, 70 μm, 2.5 mm x 40 mm) of the same compound?
The start of depletion was 76 days.

And the start of depletion ([3]; TAF:castor oil 2:1, 70 μm, 2.5 mm x 40 mm)?
The start of depletion was 83 days.

And the “TAF remaining within the implant” value ([3]; after 180 days in vitro, payload approximately 115 mg)?
The value was “approximately 68 mg”.

What about the “sustained release rate of TAF” value ([3]; over the course of 180 days in vitro, 2:1 TAF:castor oil, 100 μm wall, 2.5 mm OD x 40 mm) of the same compound?
The value was 0.25 ± 0.03 mg/day.

What about the “duration of zero-order release from segmented implants” value ([3]; segmented implants of TAF with LNG or ENG) of the same compound?
The value was 50 days.

What about the “chromatographic purity of TAF remaining in implant” value [4] of the same compound?
Its value is 89.2±0.8%.

What about the “duration of drug delivery” value [5] of the same compound?
The value was 40 days.
